Values joined by “and” are separate entries in the source; they are usually repeats but may differ in a detail not shown here. Equal entries are not always repeated.

This note sets out measurements from BindingDB's records for PubMed 10215672 (Taisho Pharmaceutical, 1999).

The target in experiment [1] is T1, Corticotropin-releasing factor receptor 1 (Rattus norvegicus, UniProt P35353).
T1 sequence (P35353 whole entry): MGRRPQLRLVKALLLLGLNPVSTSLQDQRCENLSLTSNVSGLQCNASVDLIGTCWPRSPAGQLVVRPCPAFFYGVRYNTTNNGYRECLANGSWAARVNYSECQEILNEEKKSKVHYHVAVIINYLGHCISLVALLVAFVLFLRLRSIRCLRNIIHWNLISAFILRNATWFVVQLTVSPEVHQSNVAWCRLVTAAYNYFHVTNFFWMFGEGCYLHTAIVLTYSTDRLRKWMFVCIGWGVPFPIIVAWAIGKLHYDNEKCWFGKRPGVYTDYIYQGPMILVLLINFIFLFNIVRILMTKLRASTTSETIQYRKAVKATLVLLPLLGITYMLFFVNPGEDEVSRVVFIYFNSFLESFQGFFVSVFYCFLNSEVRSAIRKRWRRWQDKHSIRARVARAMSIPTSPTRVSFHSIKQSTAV

The target in experiment [2] is Corticotropin-releasing factor receptor 2 (Rattus norvegicus, UniProt P47866).
Sequence of Corticotropin-releasing factor receptor 2 (P47866 whole entry): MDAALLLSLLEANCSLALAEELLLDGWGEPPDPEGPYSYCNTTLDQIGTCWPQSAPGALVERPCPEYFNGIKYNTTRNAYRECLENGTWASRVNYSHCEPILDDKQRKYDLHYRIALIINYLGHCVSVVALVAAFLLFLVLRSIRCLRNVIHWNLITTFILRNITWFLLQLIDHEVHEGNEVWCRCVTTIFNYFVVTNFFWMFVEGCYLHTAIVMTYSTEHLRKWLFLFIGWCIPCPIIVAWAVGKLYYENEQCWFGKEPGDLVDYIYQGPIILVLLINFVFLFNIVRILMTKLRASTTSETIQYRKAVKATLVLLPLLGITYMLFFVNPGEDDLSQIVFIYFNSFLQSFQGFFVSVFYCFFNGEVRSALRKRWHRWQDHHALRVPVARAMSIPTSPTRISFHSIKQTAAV

One may read the Ki as the dissociation constant of the complex between target and ligand, obtained from inhibition or displacement. Low readings indicate tighter binding, high ones weaker binding. In the case of `CCCCN(CC)c1nc(C)nc2c1c(C)cn2-c1c(C)cc(C)cc1C`, the Ki in experiment [1] was 1.8 nM; in experiment [2], above 10000 nM.
For the compound `COCCN(CCOC)c1nc(C)nc2c1nnn2-c1ccc(C(C)C)cc1Br`, the Ki in experiment [1] is 14.8 nM and 20.7 nM; in experiment [2] it was above 10000 nM.
`CCN(c1nc(C)cc(N2CCC=C(c3cccc(F)c3)C2)n1)c1ccc(CC(C)C)cc1Br` [CRA1001]: the Ki in experiment [1] was 22.3 nM and 18.6 nM; in experiment [2], above 10000 nM.
